We go through four molecules from publication PMC4391872, “Direct Binding of Ledipasvir to HCV NS5A: Mechanism of Resistance to an HCV Antiviral Agent” (PLoS ONE, 2015).

Assay [1] deals with T1, NS5A-6HIS (full length NS5A, genotype 1b, Con1) (Hepatitis C virus (isolate Con1), UniProt Q9WMX2).
T1 construct: mature NS5A cut from HCV genome polyprotein; full length residues 1-447 with N-terminal amphipathic helix, C-terminal 6His tag kept; Sf9 baculovirus, C12E8 solubilised, phosphorylated
T1 sequence (Q9WMX2 1973-2419): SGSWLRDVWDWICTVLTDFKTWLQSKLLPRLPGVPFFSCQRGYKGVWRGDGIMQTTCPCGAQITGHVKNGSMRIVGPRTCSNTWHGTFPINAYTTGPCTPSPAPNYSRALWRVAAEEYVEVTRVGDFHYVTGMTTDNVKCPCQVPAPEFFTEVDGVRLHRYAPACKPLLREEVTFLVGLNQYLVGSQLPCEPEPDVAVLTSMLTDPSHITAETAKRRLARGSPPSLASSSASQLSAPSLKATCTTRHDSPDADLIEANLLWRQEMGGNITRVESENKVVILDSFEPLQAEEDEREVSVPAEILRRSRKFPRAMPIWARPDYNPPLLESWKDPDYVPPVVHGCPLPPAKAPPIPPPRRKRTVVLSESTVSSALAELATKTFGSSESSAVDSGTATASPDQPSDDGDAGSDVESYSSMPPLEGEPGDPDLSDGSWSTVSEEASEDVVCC
Briefly: competition of 3H-LDV binding, Ni-NTA capture.

Assay [2] concerns the target T1, NS5A-6HIS (full length NS5A, genotype 1b, Con1). Briefly: competition of 3H-LDV binding, Ni-NTA capture. On the procedure: competition of 3H-LDV binding, Ni-NTA capture on NS5A-6HIS (full length NS5A, genotype 1b, Con1) | Ki was calculated using the Cheng-Prusoff equation
The source holds these as a separate data set.

For assay [3] the target is unchanged. Briefly: radioligand saturation binding, Ni-NTA capture.
The target in assay [4] is NS5A-Y93H-6HIS (Y93H mutant of full length NS5A, genotype 1b, Con1, with C-terminal His tag) (Hepatitis C virus genotype 1b, Con1). Briefly: AUC; sedimentation velocity (42,000 rpm, 3.3 and 6.6 uM) and equilibrium, 20 C, protein in C12E8 micelles, 25 mM Tris pH 7.5, 150 mM NaCl, 0.5 mM TCEP, 0.02% C12E8, 21.1% D2O (density matched to the detergent); self-association.

Where two headings read alike, the source gives them in different places.

`O=C1N[C@H]2[C@H](CS[C@H]2CCCCC(=O)N2CCC[C@H]2C(=O)Nc2ccc(/C=C/c3ccc(NC(=O)[C@@H]4CCCN4C(=O)Cc4ccccc4)cc3)cc2)N1` [BMS-Biotin]: the IC50 in assay [1] (read-out: no competition up to 100 μM) is more than 100000 nM.

As usually defined, the Ki is a dissociation constant, usually derived from enzyme kinetics or from competition with a known ligand. A higher Ki goes with a looser hold on the target. For `COC(=O)N[C@H](C(=O)N1CCC[C@H]1c1nc(-c2ccc(-c3ccc(-c4c[nH]c([C@@H]5CCCN5C(=O)[C@@H](NC(=O)OC)C(C)C)n4)cc3)cc2)c[nH]1)C(C)C` [daclatasvir], the IC50 in assay [1] (read-out: IC50) amounted to 753 nM. Moreover, in assay [2], the affinity, expressed as Ki, was 499 ± 68.3 nM.

The Kd is the concentration at which binding is half-saturated. `COC(=O)N[C@H](C(=O)N1CC2(CC2)C[C@H]1c1ncc(-c2ccc3c(c2)C(F)(F)c2cc(-c4ccc5nc([C@@H]6[C@H]7CC[C@H](C7)N6C(=O)[C@@H](NC(=O)OC)C(C)C)[nH]c5c4)ccc2-3)[nH]1)C(C)C` [ledipasvir]: the Kd in assay [3] worked out at 58.9 ± 6.6 nM. Also, in assay [1] (read-out: IC50), the IC50 stood at 149 nM. This molecule came in with an inhibitory constant (Ki) in assay [2] of 98.7 ± 10.2 nM.

In assay [4], “NS5A-Y93H-6HIS (Y93H mutant of full length NS5A, genotype 1b, Con1, with C-terminal His tag) (natural protein)” registered a percent dimers of 3% and a percent higher order oligomers of 7%.
